This is an account of results in patent US10844052B2, “LLS compounds for treatment of cancer” (THE REGENTS OF THE UNIVERSITY OF CALIFORNIA, priority 2016, dated 2020).

The IC50 is the concentration needed to halve the response being measured. Low readings indicate higher potency, high ones lower potency.

The subject of the experiment is SKOV3. Briefly: Anti-cancer activity against ovarian cancer cells SKOV3 (cell killing in solution / in vitro cell proliferation). It is filed as cell-based. Conditions: Homo sapiens, SK-OV-3, ovarian cancer cells SKOV3. How it is done:
Biotinylated LLS2 was synthesized in solution and loaded it onto a streptavidin-coated plate. The biotinylated LLS2 immobilized on the plate killed approximately 21% of SKOV3 ovarian cancer cells at 100 μM loading, 16% at 50 μM and 14% at 25 μM (FIG. 4). The killing effect of the LLS2 compound was also tested in solution. […] In addition, LLS2 can kill pancreatic cancer cell line XPA3, prostate cancer cell line PC3, colon cancer cell line HT29, breast cancer cell line MCF7 and lung cancer cell line A549 (FIG. 4).
For `CC(=O)OCCN(CCOC(C)=O)c1ccc(-c2nc3cc(C(N)CC(N)=O)ccc3n2Cc2ccc(C(F)(F)F)c(F)c2)cc1` (centres unmarked) [LLS22, ((4-(5-(1,3-diamino-3-oxopropyl)-1-(3-fluoro-4-(trifluoromethyl)benzyl)-1H-benzo[d]imidazol-2-yl)phenyl)azanediyl)bis(ethane-2,1-diyl) Diacetate], the concentration for half-maximal inhibition (IC50) was greater than 50 µM.
For `CC(=O)OCCN(CCOC(C)=O)c1ccc(-c2nc3cc(C(CC(N)=O)NCc4ccc(Cl)c(Cl)c4)ccc3n2CC23CC4CC(CC(C4)C2)C3)cc1` (centres unmarked) [LLS26, ((4-(1-(((1s,3s)-adamantan-1-yl)methyl)-5-(3-amino-1-((3,4-dichlorobenzyl)amino)-3-oxopropyl)-1H-benzo[d]imidazol-2-yl)phenyl)azanediyl)bis(ethane-2,1-diyl) Diacetate] the value was 10.5 µM; for `CC(=O)OCCN(CCO)c1ccc(-c2nc3cc(C(CC(N)=O)NCc4ccc(Cl)c(Cl)c4)ccc3n2CC23CC4CC(CC(C4)C2)C3)cc1` (centres unmarked) [LLS32, 2-((4-(1-(((1s,3s)-adamantan-1-yl)methyl)-5-(3-amino-1-((3,4-dichlorobenzyl)amino)-3-oxopropyl)-1H-benzo[d]imidazol-2-yl)phenyl)(2-hydroxyethyl)amino)ethyl Acetate], 10.4 µM; for `CCCC[C@H](N)C(=O)NC(CC(N)=O)c1ccc2c(c1)nc(-c1nccs1)n2CCN1CCCCC1` (stereo partly drawn) [LLS4, (2S)-2-amino-N-(3-amino-3-oxo-1-(1-(2-(piperidin-1-yl)ethyl)-2-(thiazol-2-yl)-1H-benzo[d]imidazol-5-yl)propyl)hexanamide], greater than 50 µM.
For `NC(=O)CC(NCc1ccc(Cl)c(Cl)c1)c1ccc2c(c1)nc(-c1ccc(-c3cccc(CO)n3)cc1)n2CC12CC3CC(CC(C3)C1)C2` (centres unmarked) [LLS7, 3-(1-(((1s,3s)-adamantan-1-yl)methyl)-2-(4-(6-(hydroxymethyl)pyridin-2-yl)phenyl)-1H-benzo[d]imidazol-5-yl)-3-((3,4-dichlorobenzyl)amino)propanamide] the value was greater than 50 µM; for `CC(=O)OCCN(CCOC(C)=O)c1ccc(-c2nc3cc(C(CC(N)=O)NCc4ccc(Cl)c(Cl)c4)ccc3n2Cc2ccc(F)c(F)c2)cc1` (centres unmarked) [LLS17, ((4-(5-(3-amino-1-((3,4-dichlorobenzyl)amino)-3-oxopropyl)-1-(3,4-difluorobenzyl)-1H-benzo[d]imidazol-2-yl)phenyl)azanediyl)bis(ethane-2,1-diyl) Diacetate], 10.6 µM; for `NC(=O)CC(NC(=O)[C@@H](N)Cc1ccc(Cl)c(Cl)c1)c1ccc2c(c1)nc(-c1ccc(N(CCO)CCO)cc1)n2Cc1ccc(F)c(F)c1` (stereo partly drawn) [LLS12, (2S)-2-amino-N-(3-amino-1-(2-(4-(bis(2-hydroxyethyl)amino)phenyl)-1-(3,4-difluorobenzyl)-1H-benzo[d]imidazol-5-yl)-3-oxopropyl)-3-(3,4-dichlorophenyl)propanamide], greater than 50 µM.
Turning to `NC(=O)CC(c1ccc2c(c1)nc(-c1ccc(N(CCO)CCO)cc1)n2CC12CC3CC(CC(C3)C1)C2)N(Cc1ccc(Cl)c(Cl)c1)Cc1ccc(Cl)c(Cl)c1` (centres unmarked) [LLS29, 3-(1-(((1s,3s)-adamantan-1-yl)methyl)-2-(4-(bis(2-hydroxyethyl)amino)phenyl)-1H-benzo[d]imidazol-5-yl)-3-(bis(3,4-dichlorobenzyl)amino)propanamide], inhibition was half-maximal at 25.5 µM (IC50).
For `CC(=O)OCCN(CCOC(C)=O)c1ccc(-c2nc3cc(C(CC(N)=O)NCc4ccc(Cl)c(Cl)c4)ccc3n2Cc2ccc(OC(F)(F)F)cc2)cc1` (centres unmarked) [LLS23, ((4-(5-(3-amino-1-((3,4-dichlorobenzyl)amino)-3-oxopropyl)-1-(4-(trifluoromethoxy)benzyl)-1H-benzo[d]imidazol-2-yl)phenyl)azanediyl)bis(ethane-2,1-diyl) Diacetate] the value was 8.4 µM.
In turn, `CC(=O)OCCN(CCOC(C)=O)c1ccc(-c2nc3cc(C(CC(N)=O)NC(=O)[C@@H](N)Cc4ccc(Cl)c(Cl)c4)ccc3n2CC23CC4CC(CC(C4)C2)C3)cc1` (stereo partly drawn) [LLS6, ((4-(1-(((1s,3R)-adamantan-1-yl)methyl)-5-(3-amino-1-((S)-2-amino-3-(3,4-dichlorophenyl)propanamido)-3-oxopropyl)-1H-benzo[d]imidazol-2-yl)phenyl)azanediyl)bis(ethane-2,1-diyl) Diacetate] gave an IC50 of 7.8 µM. The IC50 values of the last two compounds are within 1.5-fold of each other.
For `NC(=O)CC(NCc1ccc(N(CCO)CCO)cc1)c1ccc2c(c1)nc(-c1ccc(N(CCO)CCO)cc1)n2Cc1ccc(Cl)c(Cl)c1` (centres unmarked) [LLS38, 3-((4-(bis(2-hydroxyethyl)amino)benzyl)amino)-3-(2-(4-(bis(2-hydroxyethyl)amino)phenyl)-1-(3,4-dichlorobenzyl)-1H-benzo[d]imidazol-5-yl)propanamide] the value was greater than 50 µM.
For `CC(=O)OCCN(CCOC(C)=O)c1ccc(-c2nc3cc(C(CC(N)=O)NC(=O)[C@@H](N)[C@H](C)O)ccc3n2Cc2ccc(F)c(F)c2)cc1` (stereo partly drawn) [LLS3, ((4-(5-(3-amino-1-((2S,3S)-2-amino-3-hydroxybutanamido)-3-oxopropyl)-1-(3,4-difluorobenzyl)-1H-benzo[d]imidazol-2-yl)phenyl)azanediyl)bis(ethane-2,1-diyl) Diacetate] the value was 37.6 µM; for `NC(=O)CC(NCc1ccc(Cl)c(Cl)c1)c1ccc2c(c1)nc(-c1ccc(N(CCO)CCO)cc1)n2Cc1ccc(F)c(F)c1` (centres unmarked) [LLS19, 3-(2-(4-(bis(2-hydroxyethyl)amino)phenyl)-1-(3,4-difluorobenzyl)-1H-benzo[d]imidazol-5-yl)-3-((3,4-dichlorobenzyl)amino)propanamide], 16.8 µM; for `NC(=O)CC(NC(=O)[C@@H](N)Cc1ccc(F)c(F)c1)c1ccc2c(c1)nc(-c1ccc(N(CCO)CCO)cc1)n2Cc1ccc(F)c(F)c1` (stereo partly drawn) [LLS18, (2S)-2-amino-N-(3-amino-1-(2-(4-(bis(2-hydroxyethyl)amino)phenyl)-1-(3,4-difluorobenzyl)-1H-benzo[d]imidazol-5-yl)-3-oxopropyl)-3-(3,4-difluorophenyl)propanamide], greater than 50 µM.
For `CC(=O)OCCN(CCOC(C)=O)c1ccc(-c2nc3cc(C(CC(N)=O)NC(=O)[C@@H](N)Cc4ccc(F)c(F)c4)ccc3n2Cc2ccc(F)c(F)c2)cc1` (stereo partly drawn) [LLS11, ((4-(5-(3-amino-1-((S)-2-amino-3-(3,4-difluorophenyl)propanamido)-3-oxopropyl)-1-(3,4-difluorobenzyl)-1H-benzo[d]imidazol-2-yl)phenyl)azanediyl)bis(ethane-2,1-diyl) Diacetate] the value was greater than 50 µM.
`CC(=O)OCCN(CCOC(C)=O)c1ccc(-c2nc3cc(C(CC(N)=O)NC(=O)Nc4ccc(C(F)(F)F)c(Cl)c4)ccc3n2Cc2ccc(F)c(F)c2)cc1` (centres unmarked) [LLS15, ((4-(5-(3-amino-1-(3-(3-chloro-4-(trifluoromethyl)phenyl)ureido)-3-oxopropyl)-1-(3,4-difluorobenzyl)-1H-benzo[d]imidazol-2-yl)phenyl)azanediyl)bis(ethane-2,1-diyl) Diacetate] gave an IC50 greater than 50 µM.
Consider `NC(=O)CC(NCc1ccc(Cl)c(Cl)c1)c1ccc2c(c1)nc(-c1ccc(N3CCOCC3)cc1)n2Cc1ccc(OC(F)(F)F)cc1` (centres unmarked) [LLS24, 3-((3,4-dichlorobenzyl)amino)-3-(2-(4-morpholinophenyl)-1-(4-(trifluoromethoxy)benzyl)-1H-benzo[d]imidazol-5-yl)propanamide], for which the IC50 came to 40.1 µM.
For `NC(=O)CC(NCc1ccc(Cl)c(Cl)c1)c1ccc2c(c1)nc(-c1ccc(N(CCO)CCO)cc1)n2Cc1ccc(C(F)(F)F)c(F)c1` (centres unmarked) [LLS27, 3-(2-(4-(bis(2-hydroxyethyl)amino)phenyl)-1-(3-fluoro-4-(trifluoromethyl)benzyl)-1H-benzo[d]imidazol-5-yl)-3-((3,4-dichlorobenzyl)amino)propanamide] the value was greater than 50 µM; for `CC(=O)OCCN(CCO)c1ccc(-c2nc3cc(C(CC(N)=O)NCc4ccc(Cl)c(Cl)c4)ccc3n2Cc2ccc(Cl)c(Cl)c2)cc1` (centres unmarked) [LLS33, 2-((4-(5-(3-amino-1-((3,4-dichlorobenzyl)amino)-3-oxopropyl)-1-(3,4-dichlorobenzyl)-1H-benzo[d]imidazol-2-yl)phenyl)(2-hydroxyethyl)amino)ethyl Acetate], 10 µM.
In turn, `CC(=O)OCCN(CCOC(C)=O)c1ccc(-c2nc3cc(C(CC(N)=O)NC(=O)Nc4ccc(Cl)c(Cl)c4)ccc3n2Cc2ccc(F)c(F)c2)cc1` (centres unmarked) [LLS16, ((4-(5-(3-amino-1-(3-(3,4-dichlorophenyl)ureido)-3-oxopropyl)-1-(3,4-difluorobenzyl)-1H-benzo[d]imidazol-2-yl)phenyl)azanediyl)bis(ethane-2,1-diyl) Diacetate] returned an IC50 of 35.1 µM.
For `CC(=O)OCCN(CCOC(C)=O)c1ccc(-c2nc3cc(C(CC(N)=O)NCc4ccc(Cl)c(Cl)c4)ccc3n2Cc2ccc(F)c(Cl)c2)cc1` (centres unmarked) [LLS21, ((4-(5-(3-amino-1-((3,4-dichlorobenzyl)amino)-3-oxopropyl)-1-(3-chloro-4-fluorobenzyl)-1H-benzo[d]imidazol-2-yl)phenyl)azanediyl)bis(ethane-2,1-diyl) Diacetate] the value was 8.9 µM; for `CC(=O)OCCN(CCOC(C)=O)c1ccc(-c2nc3cc(C(CC(N)=O)NC(=O)[C@@H](N)Cc4ccc(F)c(F)c4)ccc3n2Cc2ccc(OC(F)(F)F)cc2)cc1` (stereo partly drawn) [LLS9, ((4-(5-(3-amino-1-((S)-2-amino-3-(3,4-difluorophenyl)propanamido)-3-oxopropyl)-1-(4-(trifluoromethoxy)benzyl)-1H-benzo[d]imidazol-2-yl)phenyl)azanediyl)bis(ethane-2,1-diyl) Diacetate], 17.6 µM.
Next, `CC(=O)OCCN(CCOC(C)=O)c1ccc(-c2nc3cc(C(CC(N)=O)N(Cc4ccc(Cl)c(Cl)c4)Cc4ccc(Cl)c(Cl)c4)ccc3n2CC23CC4CC(CC(C4)C2)C3)cc1` (centres unmarked) [LLS25, ((4-(1-(((1s,3s)-adamantan-1-yl)methyl)-5-(3-amino-1-(bis(3,4-dichlorobenzyl)amino)-3-oxopropyl)-1H-benzo[d]imidazol-2-yl)phenyl)azanediyl)bis(ethane-2,1-diyl) Diacetate]: 20.7 µM.
